In PubChem BioAssay (NCI):
Values joined by “and” are separate entries in the source; they are usually repeats but may differ in a detail not shown here. Equal entries are not always repeated.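 Five compound concentrations were applied to cells in 96-well plates for 48 hours; endpoints were derived by simple linear interpolation of the resulting dose-response curve. GI50 = concentration required for 50% inhibition of growth. The concentration for full growth arrest is given as TGI.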

How the values were obtained:
Assay in all cases: inhibition of tumour cell growth, NCI panel, 48 h
A498 renal = test system: A498 renal
ACHN renal = test system: ACHN renal
NCI-H226 lung = test system: NCI-H226 lung
OVCAR-3 ovarian = test system: OVCAR-3 ovarian
RPMI-8226 leukemia = test system: RPMI-8226 leukemia
SK-MEL-5 melanoma = test system: SK-MEL-5 melanoma
SK-OV-3 ovarian = test system: SK-OV-3 ovarian
SR leukemia = test system: SR leukemia
UACC-257 melanoma = test system: UACC-257 melanoma
UACC-62 melanoma = test system: UACC-62 melanoma

SMILES | GI50 (A498 renal) [µM] | TGI (A498 renal) [µM] | GI50 (ACHN renal) [µM] | TGI (ACHN renal) [µM] | GI50 (NCI-H226 lung) [µM] | TGI (NCI-H226 lung) [µM] | GI50 (OVCAR-3 ovarian) [µM] | TGI (OVCAR-3 ovarian) [µM] | GI50 (RPMI-8226 leukemia) [µM] | TGI (RPMI-8226 leukemia) [µM] | GI50 (SK-MEL-5 melanoma) [µM] | TGI (SK-MEL-5 melanoma) [µM] | GI50 (SK-OV-3 ovarian) [µM] | TGI (SK-OV-3 ovarian) [µM] | GI50 (SR leukemia) [µM] | TGI (SR leukemia) [µM] | GI50 (UACC-257 melanoma) [µM] | TGI (UACC-257 melanoma) | GI50 (UACC-62 melanoma) [µM] | TGI (UACC-62 melanoma) [µM]
C=C(C)[C@@H]1CC[C@]2(C)[C@H](C(=O)C=C3[C@@H]4C[C@](C)(C(=O)N5CCN(C)CC5)CC[C@]4(C)CC[C@]32C)[C@@]1(C)CCC#N | 7.77 | 14.9 | 7.02 | 13.5 | 7.42 | 15.9 | 6.33 | 13.2 | 5.47 | 15.4 | 7.3 | 13.9 | 6.03 | 12.5 | 1.78 | 9.07 | 6.39 | 13.9 µM | 6.03 | 12.5
CC(C)CCOc1ccc(-c2n[nH]c(C(F)(F)F)c2-c2cncc(C#N)c2)c(O)c1 | 1.75 | 6.64 | 2.54 | 9.02 | 2.57 | 9.98 | 3.17 | 16.3 | 0.697 | 4.65 | 0.943 | 2.57 | 2.2 | 6.6 | 2.01 | 11.8 | 1.69 | 5.54 µM | 1.22 | 5.38
COc1ccc(Nn2c(SCC(=O)Nc3nc(-c4ccc(Cl)cc4)cs3)nc(C)c2C)cc1 | 2.22 | 56.5 | 2.27 | 8.76 | 3.26 | > 100 | 3.13 | 24.2 | 5.8 | > 100 | 1.41 | 3.35 | 4.24 | > 100 | 7.02 | > 100 | 2.97 | 41.1 µM | 3.62 | > 100
CCNCC(=O)O[C@]1(CC)C(=O)OCc2c1cc1n(c2=O)Cc2cc3ccccc3nc2-1 |  | 4.4 |  | 1.98 |  | 1.29 |  | 15.9 |  | 4.07 |  | 1.27 |  | 10.8 |  | 0.0327 |  | 12.2 µM |  | 0.677
CCCCCC(O)C1C(=O)OC(C)C(O)/C=C/C=C/C=C/C=C\C=C(\C)C(O)CC(O)CC(O)CC(O)CC(O)CC(O)CC1O (centres undefined) | > 100 | > 100 | > 100 | > 100 | > 100 | > 100 | > 100 | > 100 | > 100 | > 100 | > 100 | > 100 | > 100 | > 100 | > 100 | > 100 | > 100 | 50 µM and > 100 µM | > 100 | > 100
CCSCC(N)C(=O)O (centres undefined) |  | > 100 |  | > 100 |  | > 100 |  | > 100 |  | > 100 |  | > 100 |  | > 100 |  | > 100 |  | > 100 µM |  | > 100
CC(C)[C@@]12C[C@@H](OC(=O)[C@H]3CO3)[C@@](C)(O1)[C@@H]1CC[C@@H](C)[C@H]1[C@@H]2OC(=O)/C=C/c1ccccc1 | 0.217 | 0.684 | 0.108 | 3.07 | 13.8 | 32.2 | 12.3 | 30.8 | 13.5 | 68.2 | 14.9 | 28.5 | 18.2 | 45.8 | 24.7 | > 100 | 19.5 | 50.6 µM | 13.6 | 35.7
COc1cc2c(cc1OCCOS(C)(=O)=O)N=C[C@@H]1CCCN1C2=O | 17.1 | 48.7 | 16 | 29.5 | 15.4 | 33.5 | 16.3 | 31.3 | 12.2 | 48.8 | 16.9 | 42.2 |  | > 100 | 11.1 | 32.9 | 18.2 | 42.8 µM | 19.4 | 42.5
C=C/C=C(\NC(=O)C(Cl)(Cl)Cl)[Si](C)(C)C |  | > 100 |  | > 100 |  | > 100 |  | > 100 |  | > 100 |  | > 100 |  | > 100 |  | > 100 |  | > 100 µM |  | > 100
COc1cc(NCCCCN=C(N)NC(N)=NC(C)C)c2ncccc2c1 | 28.5 | > 100 | > 73.7 | > 100 | 27 | > 100 | 0.311 | 0.897 | 1.51 | 11 | 2.84 | 10.7 | 34.4 | > 100 | 7.01 | 32.6 | 3.26 | 10.5 µM | 10.3 | 24.3
CC(=O)C1CC=C(C)CC1 (centres undefined) |  | > 100 |  | > 100 |  | > 100 |  | > 100 |  | > 100 |  | > 100 |  | > 100 |  | > 100 |  | > 100 µM |  | > 100
COC1=CC(O)(CC(N)=O)c2ccccc2C1=O (centres undefined) |  | > 100 |  | > 100 |  | > 100 |  | > 100 |  | > 100 |  | > 100 |  | > 100 |  | > 100 |  | > 100 µM |  | > 100
O=P(O)(O)c1ccccc1 (tested in a mixture with another compound) |  | > 100 |  | > 100 |  | > 100 |  | > 100 |  | > 100 |  | > 100 |  | > 100 |  | > 100 |  | > 100 µM |  | > 100
NC(=NCCCOc1ccc(Cl)cc1)Nc1ccc(Cl)cc1 | 1.92 | 5.43 | 2.01 | 5.31 | 3.97 | 19.6 | 2.84 | 8.09 | 2.1 | 4.66 | 1.74 | 3.16 | 3.31 | 12.3 | 2.17 | 5.9 | 1.91 | 3.84 µM | 1.88 | 3.94
C/C(=N\NC(=O)c1ccncc1)c1ccc2ccccc2c1O |  | 53.3 |  | > 100 |  | 12.1 |  | 3.59 |  | > 64.4 |  | 14.1 |  | > 60.7 |  | 32 |  | 24.6 µM |  | 21.6
NC(=O)C1=NNc2ccccc2C(=O)N1c1ccccc1 |  | > 100 |  | > 100 |  | > 100 |  | > 100 |  | > 100 |  | > 100 |  | > 100 |  | > 100 |  | > 100 µM |  | > 100
Cc1nc2sccn2c(=O)c1CCN1CCC(=C(c2ccc(F)cc2)c2ccc(F)cc2)CC1 | 15.3 | 29.4 | 13.4 | 26.3 | 15.3 | 41 | 12.8 | 27.2 | 3.78 | 25.2 | 4.01 | 15 | 16.3 | 30.7 | 0.551 | 26.7 | 9.2 | 21.9 µM | 6.73 | 20.5
CCn1c2c(n(CC)c1=S)-c1c(n(CC)c(=S)n1CC)SSSS2 |  | 63.8 |  | 16 |  | 52.2 |  | 17.9 |  | 9.34 |  | 43.1 |  | 98.9 |  | 9.17 |  | 22.6 µM |  | 18.6
Cc1cc(N(CCC#N)S(C)(=O)=O)ccc1C=O |  | > 100 |  | > 100 |  | > 100 |  | > 100 |  | > 100 |  | > 100 |  | > 100 |  | > 100 |  | > 100 µM |  | > 100
COc1ccc(C(=O)c2ccc(OC)c(OC)c2OC)cc1 | 1.08 | 9.39 | 6.56 | > 100 | 34.7 | > 100 | 0.773 | 2.86 | 2.59 | > 100 | 1.68 | 37.2 | 2.06 | 13.1 | 0.347 | > 100 | 3.73 | > 100 µM | 1.47 | > 100
NC(N)=NS(=O)(=O)c1ccc(NCc2c3ccccc3nc3ccccc23)cc1 |  | 12 |  | 30.5 |  | 4.85 |  | 49.6 |  | > 72.5 |  | 62.8 |  | 27.3 |  | 12.6 |  | > 69.3 µM |  | 35.2
CC(C)(C)[Si](C)(C)OCC1OC(n2cnc3c(NC(=O)c4ccccc4)ncnc32)CC1O (centres undefined) |  | 60.5 |  | 95.4 |  | 66.5 |  | 81.1 |  | 47 |  | 33.3 |  | 89.1 |  | 49.6 |  | > 100 µM |  | 40.4
C1CCN(CCC2CCCCN2)CC1 (centres undefined) |  | > 100 |  | > 100 |  | > 100 |  | > 100 |  | > 100 |  | > 100 |  | > 100 |  | > 100 |  | > 100 µM |  | > 100
O=C(CO)CC(=O)C(=O)Nc1nc([N+](=O)[O-])cs1 |  | > 100 |  | > 100 |  | > 100 |  | > 100 |  | > 100 |  | > 100 |  | > 100 |  | > 100 |  | > 100 µM |  | > 100
